From publication PMC10590756, “Glutarate regulates T cell metabolism and anti-tumour immunity” (Nature Metabolism, 2023)

System: B16F10-OVA cancer cells
Test: In vitro cytotoxicity of OT1 CD8^+ T cells
Type: cell-based, mouse
Settings: T cells cultured 7 days with 500 µM DEG
Procedure: Ten thousand B16F10-OVA or SKOV3 cells were seeded per well in 96-well plates and cocultured for a minimum of 14 h with varying ratios of mouse CD8^+ OT1 or human CD8^+RQR8^+ HER2 CAR T cells, respectively. T cells had been treated with or without DEG 7 days before the assay. Wells were washed twice with PBS to remove T cells and the number of remaining target cells was determined by culturing with 10 µg ml^−1 resazurin (catalogue no. R7017, Sigma-Aldrich) and measuring the fluorescence signal in a plate reader. Cytotoxicity was calculated relative to wells with no T cells added. Ten thousand Raji cells were cocultured for a minimum of 14 h with CD19 CAR T cells previously activated for 7 days and cultured with or without DEG. Cytotoxicity was assessed by flow cytometry using the ratio of live Raji cells to CountBright Absolute Counting Beads (catalogue no. C36950, Thermo Fisher Scientific). To determine specific cytotoxicity, data were normalized to the cytotoxicity of the vector-controlled transduced CD8 T cells of the respective donor.

## CCOC(=O)CCCC(=O)OCC [DEG, Diethyl glutarate]
  killing of B16F10-OVA cancer cells by OT1 CD8^+ T cells: more proficient at killing
